Assay results from ChEMBL document CHEMBL6096664, “Discovery of novel KSP-targeting PROTACs with potent antitumor effects in vitro and in vivo” (Eur J Med Chem, 2025).

Tests used:
[1] = test system: HCT-116; test: Antitumor activity against human HCT-116 cells xenografted in female BALB/c nu/nu mouse assessed as reduction in tumor volume at 7.5 mg/kg, ip measured every 2 days for 14 days relative to control; type: functional; parameters: scale not given: the % may be the effect or the level left; details: time 14 day
[2] = target: T1, Protein cereblon/Kinesin-like protein KIF11 (Homo sapiens, UniProt P52732+Q96SW2); test: PROTAC activity at CRBN/KSP in human HCT-116 cells assessed as induction of KSP degradation at 500 nM incubated for 48 hrs by Western blot analysis relative to control; type: cell-based
Target sequence in this assay (Q96SW2 whole entry, looked up, one chain of several): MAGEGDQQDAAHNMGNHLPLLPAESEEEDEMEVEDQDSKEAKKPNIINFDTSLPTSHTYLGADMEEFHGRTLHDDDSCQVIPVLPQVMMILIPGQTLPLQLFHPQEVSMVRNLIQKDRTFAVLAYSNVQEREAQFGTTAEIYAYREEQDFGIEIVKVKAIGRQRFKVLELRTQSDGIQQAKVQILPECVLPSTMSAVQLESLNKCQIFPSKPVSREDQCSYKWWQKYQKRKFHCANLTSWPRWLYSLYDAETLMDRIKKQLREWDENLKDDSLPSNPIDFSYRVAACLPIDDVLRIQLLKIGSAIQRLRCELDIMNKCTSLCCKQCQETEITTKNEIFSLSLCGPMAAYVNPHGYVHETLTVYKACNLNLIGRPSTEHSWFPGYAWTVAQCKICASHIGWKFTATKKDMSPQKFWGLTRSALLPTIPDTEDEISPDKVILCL

[3] = test system: HCT-116; test: Induction of cell cycle arrest in human HCT-116 cells assessed as accumulation of cells at S phase at 100 nM incubated for 24 hrs by RNase A/propidium iodide staining based flow cytometric analysis (reference value: 2.84 %); type: functional
[4] = target: T1, Protein cereblon/Kinesin-like protein KIF11; test: PROTAC activity at CRBN/KSP in human HCT-116 cells assessed as reduction of KSP protein level at 200 nM by Western blot analysis; type: cell-based; details: time 6-48 hrs
Target sequence in this assay (Q96SW2 whole entry, looked up, one chain of several): as above

[5] = test system: HCT-116; test: Antiproliferative activity against human HCT-116 cells assessed as inhibition of cell proliferation measured after 72 hrs by CCK8 assay; type: functional, cell-based; details: HCT-116, 72 h
[6] = test system: HCT-116; test: Induction of apoptosis in human HCT-116 cells assessed as late apoptotic cells at 100 nM incubated for 48 hrs by Annexin V-FITC/PI staining based flow cytometry analysis (reference value: 1.36 %); type: functional
[7] = test system: HCT-116; test: Induction of cell cycle arrest in human HCT-116 cells assessed as accumulation of cells at G1 phase at 100 nM incubated for 24 hrs by RNase A/propidium iodide staining based flow cytometric analysis (reference value: 93.11 %); type: functional
[8] = target: T2, Kinesin-like protein KIF11 (Homo sapiens, UniProt P52732); test: Inhibition of KSP (unknown origin) ATPase activity preincubated for 30 mins followed by ATP addition and measured after 15 mins by Kinase-Glo Plus reagent based luminescence analysis
T2 sequence (P52732 whole entry): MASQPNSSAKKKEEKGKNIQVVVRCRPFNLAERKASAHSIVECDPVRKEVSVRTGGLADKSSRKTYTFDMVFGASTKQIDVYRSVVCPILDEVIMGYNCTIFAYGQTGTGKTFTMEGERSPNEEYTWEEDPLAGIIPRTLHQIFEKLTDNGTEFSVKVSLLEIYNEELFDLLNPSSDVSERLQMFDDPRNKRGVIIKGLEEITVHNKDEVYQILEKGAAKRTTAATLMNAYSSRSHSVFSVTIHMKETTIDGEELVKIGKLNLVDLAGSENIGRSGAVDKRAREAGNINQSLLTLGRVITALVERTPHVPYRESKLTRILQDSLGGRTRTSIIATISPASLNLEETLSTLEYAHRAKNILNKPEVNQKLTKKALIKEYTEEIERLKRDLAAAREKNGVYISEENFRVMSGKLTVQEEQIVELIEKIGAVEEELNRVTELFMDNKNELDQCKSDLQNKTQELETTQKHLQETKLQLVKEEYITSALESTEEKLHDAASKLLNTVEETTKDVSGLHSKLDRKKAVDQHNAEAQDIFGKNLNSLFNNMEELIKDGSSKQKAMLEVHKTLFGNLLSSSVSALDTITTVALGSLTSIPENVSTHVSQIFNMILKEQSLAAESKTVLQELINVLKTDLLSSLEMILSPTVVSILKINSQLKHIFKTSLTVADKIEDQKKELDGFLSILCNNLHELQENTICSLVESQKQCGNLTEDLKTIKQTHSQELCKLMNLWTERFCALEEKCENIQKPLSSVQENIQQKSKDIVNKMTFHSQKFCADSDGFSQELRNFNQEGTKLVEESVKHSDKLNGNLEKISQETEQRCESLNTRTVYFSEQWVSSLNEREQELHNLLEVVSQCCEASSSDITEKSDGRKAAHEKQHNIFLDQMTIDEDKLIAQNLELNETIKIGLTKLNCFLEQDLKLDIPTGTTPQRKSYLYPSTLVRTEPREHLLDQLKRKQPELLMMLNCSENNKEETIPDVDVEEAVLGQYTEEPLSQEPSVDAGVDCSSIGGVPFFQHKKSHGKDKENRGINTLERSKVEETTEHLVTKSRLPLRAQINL

[9] = test system: HCT-116; test: Induction of cell cycle arrest in human HCT-116 cells assessed as accumulation of cells at G2/M phase at 10 nM incubated for 24 hrs by RNase A/propidium iodide staining based flow cytometric analysis (reference value: 4.05 %); type: functional
[10] = test system: HCT-116; test: Induction of apoptosis in human HCT-116 cells assessed as early apoptotic cells at 10 nM incubated for 48 hrs by Annexin V-FITC/PI staining based flow cytometry analysis (reference value: 3.02 %); type: functional
[11] = target: T1, Protein cereblon/Kinesin-like protein KIF11; test: PROTAC activity at CRBN/KSP in human HCT-116 cells assessed as induction of KSP degradation incubated for 48 hrs by Western blot analysis; type: cell-based
[12] = test system: HCT-116; test: Induction of apoptosis in human HCT-116 cells assessed as early apoptotic cells at 100 nM incubated for 48 hrs by Annexin V-FITC/PI staining based flow cytometry analysis (reference value: 3.02 %); type: functional
[13] = test system: A549; test: Antiproliferative activity against human A549 cells assessed as inhibition of cell proliferation measured after 72 hrs by CCK8 assay; type: functional, cell-based; details: A549, 72 h
[14] = test system: HCT-116; test: Antitumor activity against human HCT-116 cells xenografted in female BALB/c nu/nu mouse assessed as reduction in tumor volume at 15 mg/kg, ip measured every 2 days for 14 days relative to control; type: functional; parameters: scale not given: the % may be the effect or the level left; details: time 14 day
[15] = test system: HCT-116; test: Induction of apoptosis in human HCT-116 cells assessed as late apoptotic cells at 10 nM incubated for 48 hrs by Annexin V-FITC/PI staining based flow cytometry analysis (reference value: 1.36 %); type: functional
[16] = test system: MCF7; test: Antiproliferative activity against human MCF7 cells assessed as inhibition of cell proliferation measured after 72 hrs by CCK8 assay; type: functional, cell-based; details: MCF7, 72 h
[17] = Toxicity in female BALB/c nu/nu nude mouse xenografted with human HCT-116 cells assessed as body weight loss at 7.5 to 15 mg/kg, ip measured every 2 days for 14 days; type: organism-based; details: in vivo, 336 h, dose 7.5-15 mg/kg, time 14 day
[18] = test system: HCT-116; test: Induction of cell cycle arrest in human HCT-116 cells assessed as accumulation of cells at S phase at 10 nM incubated for 24 hrs by RNase A/propidium iodide staining based flow cytometric analysis (reference value: 2.84 %); type: functional
[19] = target: T1, Protein cereblon/Kinesin-like protein KIF11; test: PROTAC activity at CRBN/KSP in human HCT-116 cells assessed as induction of KSP degradation at 200 nM pretreated with MG-132 for 2 hrs followed by compound addition for 24 hrs by Western blot analysis; type: cell-based
Target sequence in this assay (Q96SW2 whole entry, looked up, one chain of several): as the sequence (Q96SW2 whole entry, looked up, one chain of several) above

[20] = test system: HCT-116; test: Antitumor activity against human HCT-116 cells xenografted in female BALB/c nu/nu mouse assessed as reduction in tumor weight at 7.5 mg/kg, ip measured every 2 days for 14 days relative to control; type: functional; parameters: scale not given: the % may be the effect or the level left; details: time 14 day
[21] = target: T1, Protein cereblon/Kinesin-like protein KIF11; test: PROTAC activity at CRBN/KSP in human HCT-116 cells assessed as induction of KSP degradation at 200 nM pretreated with MLN4924 for 2 hrs followed by compound addition for 24 hrs by Western blot analysis; type: cell-based
Target sequence in this assay (Q96SW2 whole entry, looked up, one chain of several): as the sequence (Q96SW2 whole entry, looked up, one chain of several) above

Activity [2]: 82.1%
IC50 [5]: 10.2 nM
IC50 [8]: 290 nM
Activity [11]: Dose-dependent-effect
DC50 [11]: 115 nM
IC50 [13]: 160 nM
IC50 [16]: 424 nM
Compound: COc1ccc(C2(SC[C@H](N)C(=O)NCCCCCCCCNC(=O)COc3cccc4c3C(=O)N(C3CCC(=O)NC3=O)C4=O)c3ccccc3C=Cc3ccccc32)cc1 (some centres not stated)
Activity [1]: 91%
Activity [3]: 14.97%
Activity [4]: Time-dependent-effect; Considerable Ksp Degradation Noticed Within 6 Hrs
Activity [6]: 25.55%
Activity [7]: 9.98%
Activity [9]: 14.79%
Activity [10]: 13.51%
Activity [12]: 30.35%
Activity [14]: 98%
Activity [15]: 14.96%
Activity [17]: Non-toxic
Activity [18]: 9.87%
Activity [19]: Not active; Compound Induced Ksp Degradation In Mediated Through Ubiquitin-Proteosome System
Activity [20]: 97%
Activity [21]: Not active; Compound Induced Ksp Degradation In Mediated Through Ubiquitin-Proteosome System
